Reference: ChEMBL document CHEMBL3885881, “DrugMatrix”

Organism: Rattus norvegicus
Assay: DrugMatrix - Regimen: Daily Repeat
Assay type: toxicity, organism-based, Sprague-Dawley
Parameters: regimen Daily Repeat, gender Male, age 6-8 weeks
Details: in vivo, iv, vehicle 100 % SALINE; for ABSOLUTE BASOPHIL / ABSOLUTE EOSINOPHIL / ABSOLUTE LYMPHOCYTE / ABSOLUTE MONOCYTE / ABSOLUTE SEGMENTED NEUTROPHIL / BASOPHIL / EOSINOPHIL / ERYTHROCYTE COUNT / HEMATOCRIT / LEUKOCYTE COUNT / LYMPHOCYTE / MEAN CORPUSCULAR HEMOGLOBIN / MEAN CORPUSCULAR HEMOGLOBIN CONCENTRATION / MONOCYTE / NEUTROPHIL / NUCLEATED RED BLOOD CELLS / PLATELET COUNT / HEMOGLOBIN: tissue Blood
[1] = 6 mg/kg, 72 h, tissue Plasma, dose level Low, time 3 day
[2] = 6 mg/kg, 120 h, dose level Low, time 5 day
[3] = 6 mg/kg, 120 h, tissue Plasma, dose level Low, time 5 day
[4] = 14 mg/kg, 72 h, dose level High, time 3 day
[5] = 14 mg/kg, 72 h, tissue Plasma, dose level High, time 3 day
[6] = 14 mg/kg, 120 h, dose level High, time 5 day
[7] = 14 mg/kg, 120 h, tissue Plasma, dose level High, time 5 day

Sequence: CARBOPLATIN
- TOTAL PROTEIN [1]: 6.3 G/DL
- URIC ACID [1]: 1.1 mg/dL
- ABSOLUTE BASOPHIL [2]: 0 CELLS/uL
- ABSOLUTE EOSINOPHIL [2]: 0 CELLS/uL
- ABSOLUTE LYMPHOCYTE [2]: 10376.67 CELLS/uL
- ABSOLUTE MONOCYTE [2]: 36 CELLS/uL
- ABSOLUTE SEGMENTED NEUTROPHIL [2]: 287.33 CELLS/uL
- BASOPHIL [2]: 0%
- EOSINOPHIL [2]: 0%
- ERYTHROCYTE COUNT [2]: 5.55 x10E6/uL
- HEMATOCRIT [2]: 34.6%
- LEUKOCYTE COUNT [2]: 10.7 x10E3/uL
- LYMPHOCYTE [2]: 97%
- MEAN CORPUSCULAR HEMOGLOBIN [2]: 24.17 pg
- MEAN CORPUSCULAR HEMOGLOBIN CONCENTRATION [2]: 38.73 G/DL
- MONOCYTE [2]: 0.33%
- NEUTROPHIL [2]: 2.67%
- NUCLEATED RED BLOOD CELLS [2]: 0.33 /100WBC
- PLATELET COUNT [2]: 1189.33 x10E3/uL
- ALANINE AMINOTRANSFERASE [3]: 46 u/L
- ALKALINE PHOSPHATASE [3]: 366 u/L
- ASPARTATE AMINOTRANSFERASE [3]: 90.67 u/L
- CARBON DIOXIDE [3]: 29 mmol/L
- CHOLESTEROL [3]: 74.67 mg/dL
- CREATINE PHOSPHOKINASE [3]: 348 u/L
- CREATININE [3]: 0.38 mg/dL
- GLUCOSE [3]: 158.33 mg/dL
- LACTATE DEHYDROGENASE [3]: 130.67 u/L
- LIPASE [3]: 9 u/L
- PHOSPHORUS [3]: 10.43 mg/dL
- POTASSIUM [3]: 5.45 MEQ/L
- TOTAL BILIRUBIN [3]: 0.17 mg/dL
- TOTAL PROTEIN [3]: 6.07 G/DL
- URIC ACID [3]: 0.87 mg/dL
- ABSOLUTE BASOPHIL [4]: 0 CELLS/uL
- ABSOLUTE EOSINOPHIL [4]: 14 CELLS/uL
- ABSOLUTE LYMPHOCYTE [4]: 7854 CELLS/uL
- ABSOLUTE MONOCYTE [4]: 121.33 CELLS/uL
- ABSOLUTE SEGMENTED NEUTROPHIL [4]: 410.67 CELLS/uL
- BASOPHIL [4]: 0%
- EOSINOPHIL [4]: 0.33%
- ERYTHROCYTE COUNT [4]: 6.2 x10E6/uL
- HEMATOCRIT [4]: 38.03%
- HEMOGLOBIN [4]: 15.03 G/DL
- LEUKOCYTE COUNT [4]: 8.4 x10E3/uL
- LYMPHOCYTE [4]: 94%
- MEAN CORPUSCULAR HEMOGLOBIN [4]: 24.43 pg
- MEAN CORPUSCULAR HEMOGLOBIN CONCENTRATION [4]: 39.67 G/DL
- NEUTROPHIL [4]: 4%
- NUCLEATED RED BLOOD CELLS [4]: 1 /100WBC
- PLATELET COUNT [4]: 574 x10E3/uL
- ALANINE AMINOTRANSFERASE [5]: 46.67 u/L
- ALBUMIN [5]: 4.5 G/DL
- ALKALINE PHOSPHATASE [5]: 398.67 u/L
- ASPARTATE AMINOTRANSFERASE [5]: 94.33 u/L
- BLOOD UREA NITROGEN [5]: 15.67 mg/dL
- CARBON DIOXIDE [5]: 29.33 mmol/L
- CHLORIDE [5]: 97 MEQ/L
- CHOLESTEROL [5]: 78.33 mg/dL
- CREATINE PHOSPHOKINASE [5]: 381 u/L
- CREATININE [5]: 0.22 mg/dL
- GLUCOSE [5]: 145.33 mg/dL
- LACTATE DEHYDROGENASE [5]: 168.33 u/L
- LIPASE [5]: 11 u/L
- POTASSIUM [5]: 6.3 MEQ/L
- TOTAL BILIRUBIN [5]: 0.23 mg/dL
- TOTAL PROTEIN [5]: 6.6 G/DL
- URIC ACID [5]: 1.1 mg/dL
- ABSOLUTE BASOPHIL [6]: 0 CELLS/uL
- ABSOLUTE EOSINOPHIL [6]: 0 CELLS/uL
- ABSOLUTE LYMPHOCYTE [6]: 7567 CELLS/uL
- ABSOLUTE MONOCYTE [6]: 38.67 CELLS/uL
- ABSOLUTE SEGMENTED NEUTROPHIL [6]: 427.67 CELLS/uL
- BASOPHIL [6]: 0%
- EOSINOPHIL [6]: 0%
- ERYTHROCYTE COUNT [6]: 5.69 x10E6/uL
- HEMATOCRIT [6]: 34.77%
- HEMOGLOBIN [6]: 13.5 G/DL
- LEUKOCYTE COUNT [6]: 8.03 x10E3/uL
- LYMPHOCYTE [6]: 94.33%
- MEAN CORPUSCULAR HEMOGLOBIN CONCENTRATION [6]: 38.83 G/DL
- MONOCYTE [6]: 0.33%
- NEUTROPHIL [6]: 5.33%
- NUCLEATED RED BLOOD CELLS [6]: 0.33 /100WBC
- PLATELET COUNT [6]: 1070.33 x10E3/uL
- ALANINE AMINOTRANSFERASE [7]: 54 u/L
- ALKALINE PHOSPHATASE [7]: 340 u/L
- ASPARTATE AMINOTRANSFERASE [7]: 84.33 u/L
- BLOOD UREA NITROGEN [7]: 18 mg/dL
- CARBON DIOXIDE [7]: 28 mmol/L
- CHOLESTEROL [7]: 71.67 mg/dL
- CREATINE PHOSPHOKINASE [7]: 378.67 u/L
- CREATININE [7]: 0.28 mg/dL
- GLUCOSE [7]: 151.67 mg/dL
- LACTATE DEHYDROGENASE [7]: 133 u/L
- LIPASE [7]: 11.67 u/L
- PHOSPHORUS [7]: 10.93 mg/dL
- POTASSIUM [7]: 4.99 MEQ/L
- TOTAL BILIRUBIN [7]: 0.17 mg/dL
- TOTAL PROTEIN [7]: 6.07 G/DL
- URIC ACID [7]: 0.83 mg/dL
